Measurements as given in patent publication US20240336977A1, “MICRORNA-REGULATED BIOMARKERS AND DRUG TARGETS FOR IMPROVING DIAGNOSIS AND TREATMENT OF LUNG OR BREAST CANCER” (West Virginia University Board of Governors on behalf of …, priority 2023, published 2024).

Key:
[1] = test system: HCC1806; test: Drug sensitivity categorisation of breast cancer cell line HCC1806; format: cell-based, human; details: TNBC cell line HCC1806; categorised from IC50, ln(IC50), EC50, ln(EC50)
Text: (§1) Drug Sensitivity Data of Breast Cancer Cell Lines The drug sensitivity data of breast cancer cell lines were obtained from two distinct sources. The first source was the Profiling Relative Inhibition Simultaneously in Mixtures (PRISM) [Corsello, S. M.; Nagari, R. T.; Spangler, R. D.; Rossen, J.; Kocak, M.; Bryan, J. G.; Humeidi, R.; Peck, D.; Wu, X.; Tang, A. A.; et al. Discovering the anti-cancer potential of non-oncology drugs by systematic viability profiling. Nature cancer 2020, 1, 235-248, doi:10.1038/s43018-019-0018-6] secondary screen data, which was provided in the DepMap 19Q4 data release (https://depmap.org/portal, accessed on 23 May 2023). The second source encompassed the Genomics of Drug Sensitivity in Cancer (GDSC1 and GDSC2) datasets [Yang, W.; Soares, J.; Greninger, P.; Edelman, E. J.; Lightfoot, H.; Forbes, S.; Bindal, N.; Beare, D.; Smith, J. A.; Thompson, I. R.; et al. Genomics of Drug Sensitivity in Cancer (GDSC): a resource for therapeutic biomarker discovery in cancer cells. Nucleic acids research 2013, 41, D955-961, doi:10.1093/nar/gksllll, Iorio, F.; Knijnenburg, T. A.; Vis, D. J.; Bignell, G. R.; Menden, M. P.; Schubert, M.; Aben, N.; Goncalves, E.; Barthorpe, S.; Lightfoot, H.; et al. A Landscape of Pharmacogenomic Interactions in Cancer. Cell 2016, 166, 740-754, doi:10.1016/j.cell.2016.06.017, Garnett, M. J.; Edelman, E. J.; Heidorn, S. J.; Greenman, C. D.; Dastur, A.; Lau, K. W.; Greninger, P.; Thompson, I. R.; Luo, X.; Soares, J.; et al. Systematic identification of genomic markers of drug sensitivity in cancer cells. Nature 2012, 483, 570-575, doi:10.1038/nature11005], which were made available through CancerRxGene (https://www.cancerrxgene.org/, accessed on 25 May 2023). In this study, we examined drug sensitivity using various measurements, including IC50, ln(IC50), EC50, and ln(EC50). Further details regarding the categorization of drug sensitivity and resistance can be found in our previous work [Ye, Q.; Mohamed, R.; Dukhlallah, D.; Gencheva, M.; Hu, G.; Pearce, M. C.; Kolluri, S. K.; Marsh, C. B.; Eubank, T. D.; Ivanov, A. V.; et al. Molecular Analysis of ZNF71 KRAB in Non-Small-Cell Lung Cancer. International journal of molecular sciences 2021, 22, doi:10.3390/ijms22073752, Ye, Q.; Singh, S.; Qian, P. R.; Guo, N. L. Immune-Omics Networks of CD27, PD1, and PDL1 in Non-Small Cell Lung Cancer. Cancers (Basel) 2021, 13, doi:10.3390/cancers13174296].
(§2) For drug sensitivity analysis, we classified the breast cancer cell lines as sensitive or resistant to each drug based on the measurements of IC50, ln(IC50), EC50, and ln(EC50), following the classification method described in our previous publications. Both mRNA and protein expression levels were considered in determining the association with drug sensitivity.

[2] = test system: HCC1937; test: Drug sensitivity (PRISM) of breast cancer cell line HCC1937; format: cell-based, human; details: TNBC cell line HCC1937; categorised from IC50, ln(IC50), EC50, ln(EC50)
Text: as §1, §2
(§3) Drug Sensitivity in CCLE. This study used drug sensitivity data of human breast cancer cell lines from various sources. The DepMap portal provided the secondary Profiling Relative Inhibition Simultaneously in Mixtures (PRISM) [Corsello, S. M.; Nagari, R. T.; Spangler, R. D.; Rossen, J.; Kocak, M.; Bryan, J. G.; Humeidi, R.; Peck, D.; Wu, X.; Tang, A. A.; et al. Discovering the anti-cancer potential of non-oncology drugs by systematic viability profiling. Nat. Cancer 2020, 1, 235-248. https://doi.org/10.1038/s43018-019-0018-6] repurposing dataset (PRISM repurposing 19Q4, accessed on 3 Apr. 2023), which includes screening results of 1447 compounds in 22 human breast cancer cell lines. Additionally, we downloaded the Genomics of Drug Sensitivity in Cancer (GDSC1 and GDSC2) datasets [Yang, W.; Soares, J.; Greninger, P.; Edelman, E. J.; Lightfoot, H.; Forbes, S.; Bindal, N.; Beare, D.; Smith, J. A.; Thompson, I. R.; et al. Genomics of Drug Sensitivity in Cancer (GDSC): A resource for therapeutic biomarker discovery in cancer cells. […]

[3] = test system: MCF7 cells; test: Drug sensitivity categorisation of breast cancer cell line MCF7; format: cell-based, human; details: Luminal A MCF7 cells; categorised from IC50, ln(IC50), EC50, ln(EC50)
Text: as §1, §2

[4] = test system: human NSCLC cell lines; test: PRISM drug response (IC50/EC50) in CCLE NSCLC cell lines; format: cell-based; details: average across CCLE human NSCLC cell lines, PRISM data
Text: Drug Response. The PRISM (Profiling Relative Inhibition Simultaneously in Mixtures) framework [Corsello, S. M., et al., Discovering the anti-cancer potential of non-oncology drugs by systematic viability profiling. […] 235-248] is a computational tool that estimates drug sensitivities of cancer cell lines using molecular profiling data, particularly gene expression data from the CCLE database. It was obtained the PRISM repurposing dataset of the secondary screen from DepMap release PRISM Repur-posing 19Q4 (https://depmap.org/portal/download/all/, accessed on 25 Jan. 2023). For this study, the PRISM drug response data was used from 94 NSCLC cell lines for 1,448 compounds to investigate the drug sensitivity of specific genes.

[5] = test system: HCC38; test: Drug sensitivity (PRISM) of breast cancer cell line HCC38; format: cell-based, human; details: TNBC cell line HCC38; categorised from IC50, ln(IC50), EC50, ln(EC50)
Text: as §1, §2, §3

[6] = test system: T47D breast cancer cells; details: cited from earlier work
[7] = Phase II clinical studies; cited from earlier work
[8] = Phase I clinical trials; cited from earlier work
[9] = test system: HCC1143; test: Drug sensitivity categorisation of breast cancer cell line HCC1143; format: cell-based, human; details: TNBC cell line HCC1143; categorised from IC50, ln(IC50), EC50, ln(EC50)
Text: as §1, §2

[10] = test system: advanced solid tumors; details: Phase I, cited from earlier work
[11] = patients with advanced solid tumors

Row | SMILES | cell line sensitive or resistant to drug [1] | cell line sensitive or resistant to drug [2] | cell line sensitive or resistant to drug [3] | cell line sensitive or resistant to drug [5] | cell line sensitive or resistant to drug [9] | other results
1 | O=C(NC[C@H](O)CO)c1ccncc1Nc1ccc(I)cc1F [AS703026] | resistant | resistant | – | – | – | –
2 | N#C/C(=C(/N)Sc1ccc(N)cc1)c1ccccc1C(F)(F)F [BRD-K12244279] | – | – | resistant | – | – | –
3 | O=C(Nc1cccc(Nc2ncc(Br)c(NCCc3cnc[nH]3)n2)c1)N1CCCC1 [BX-912] | – | – | – | – | – | averaged IC50 and EC50 [4]: low
4 | COc1cccc(-c2cc(=O)c3ccccc3o2)c1N [PD98059] | sensitive | resistant | sensitive | sensitive | – | ERK phosphorylation response to MEK inhibition [6]: resistance
5 | O=C(NOCC1CC1)c1ccc(F)c(F)c1Nc1ccc(I)cc1Cl [PD184352] | – | – | sensitive | resistant | sensitive | efficacy [7]: insufficient efficacy; tolerability [8]: well tolerated
6 | Cc1cc(I)ccc1Nc1c(C(=O)NOCC2CC2)cc(F)c(F)c1F [PD198306] | sensitive | resistant | sensitive | resistant | sensitive | ERK phosphorylation response to MEK inhibition [6]: resistance
7 | O=C(NOC[C@H](O)CO)c1ccc(F)c(F)c1Nc1ccc(I)cc1F [PD0325901] | sensitive | resistant | resistant | resistant | sensitive | –
8 | OCc1ccc(-c2ccc(-c3ccc(CO)s3)o2)s1 [RITA] | sensitive | sensitive | sensitive | sensitive | sensitive | –
9 | Cc1cnc(Nc2ccc(OCCN3CCCC3)cc2)nc1Nc1cccc(S(=O)(=O)NC(C)(C)C)c1 [TG101348] | sensitive | sensitive | sensitive | – | – | –
10 | N#CC(=C(/N)Sc1ccccc1N)/C(C#N)=C(\N)Sc1ccccc1N [U0126] | – | – | sensitive | – | – | ERK phosphorylation response to MEK inhibition [6]: resistance
11 | C[C@@H](N)[C@H]1CC[C@H](C(=O)Nc2ccncc2)CC1 [Y-27632] | sensitive | – | – | sensitive | sensitive | –
12 | COc1cccc2c1C(=O)c1c(O)c3c(c(O)c1C2=O)C[C@@](O)(C(C)=O)C[C@@H]3O[C@H]1C[C@H](N)[C@H](O)[C@H](C)O1 [daunorubicin] | – | – | – | – | – | averaged IC50 and EC50 [4]: low
13 | Cc1cn(-c2cc(NC(=O)c3ccc(C)c(Nc4nccc(-c5cccnc5)n4)c3)cc(C(F)(F)F)c2)cn1 [nilotinib] | sensitive | resistant | – | resistant | resistant | –
14 | CC[C@@H]1C(=O)OC[C@@H]1Cc1cncn1C [pilocarpine] | sensitive | sensitive | – | sensitive | sensitive | –
15 | c1ccc2c(CCNc3ccc(Nc4ccncc4)cc3)c[nH]c2c1 [serdemetan] | – | – | – | sensitive | sensitive | tumor response ([10]; a breast cancer patient): partial response; QTc liability [10, 11]: exposure-related QTc liability; tolerability [10, 11]: well tolerated
16 | CNC(=O)c1cc(Oc2ccc(NC(=O)Nc3ccc(Cl)c(C(F)(F)F)c3)cc2)ccn1 [sorafenib] | sensitive | – | – | sensitive | – | –
17 | C(#CCN1CCCC1)CN1CCCC1 [tremorine] | sensitive | sensitive | – | sensitive | sensitive | –
